According to patent publication US4431662A, “1-(1,3-Benzodioxol-5-yl)-2-pyrrolidinone and its medicinal use” (priority 1981, dated 1984):

Experiments:
[1] = Modified Trypsin Hyperalgesic Assay (THA) in the rat; format: in vivo
Procedure: The analgesic agents were administered 30 minutes after the administration of trypsin. In addition, a modification of Vinegar's published assay was carried out, comprising the administration of the analgesic agent preceding subplantar injection of trypsin (0.10 ml of 10% solution of trypsin in pyrogen-free water) by 15 minutes. In both THA's, pain scores were determined 60 minutes after trypsin injection. The result of the modification was to increase the sensitivity of the THA to the mild analgesic action of the agents.
There were usually 6 rats at each dose level and at least 3 dose levels were used.

[2] = Yeast-Induced Hyperthermia Assay, antipyretic activity; format: in vivo; conditions: rat; for ED50: po; for antipyretic activity (in words): yeast-induced hyperthermia assay
Text: The Yeast-Induced Hyperthermia Assay was used according to the procedure described by Khalili-Varasteh et al. in Arch. Int. Pharmacodyn.

Rat Hot Plate Assay = format: in vivo; conditions: for Hot Plate Assay - Rat ED50, inactive: at 360 mg/kg; for ED50: po, 1 h, read-out: Hot Plate Assay - Rat ED50
Text: The rat hot plate assay incorporated 2 modifications of the mouse hot plate assay originally described by Eddy et al., J. Pharmacol. Exp. Ther. 98, 121-137 (1950). The first modification was enlargement of the diameter of the cylindrical (water filled) copper plate to 25.0 cm to accommodate rats instead of mice. The second modification was the use of a temperature controller to regulate a 250 watt infrared heat lamp which was activated via a thermistor probe attached to the undersurface of the top of the copper plate. The surface temperature was thus maintained at 45±1.0° C. (N=28 measurements of the plate temperature under experimental conditions). The time in which a rat placed on the hotplate responded by lifting, shaking or licking either of its hind or forelimbs was recorded in tenths of a second. Only animals responding in pretest within 6-13 seconds were used in the studies. Drugs were suspended in 0.5% sodium carboxymethylcellulose and administered orally, by gavage, in a volume of 1.00 ml/100 g.b. wt. 60 min prior to testing. […] The reaction time of 18.3 seconds represented the sum of the mean pretest times of 40 untreated rats plus the time of 3 standard deviations of the mean. ED50 's and their standard errors were estimated from a graph of the dose-response curves using the method of Miller and Tainter (Proc. Soc. Exp. Biol. Med. 57, 261-262 (1944). Following this procedure the analgesic activity of the compound (I) was compared to that of standard analgesic drugs (Table III).
*Duration of Action in Rat Hot Plate assay represents the time in hrs to
reduce 1.5 times the hot plate ED50 to 40% inhibition.

[3] = Acetic Acid Writhing Test (AAWT) in the rat; format: in vivo; conditions: po, read-out: ED50 (Acetic Acid Writhing Assay in the Rat)
Text: Using the procedure described by Koster et al. in Fed. Proc. 18, 412 (1959) and Vinegar et al. in Handbook of Experimental Pharmcology, 50-2, ch.

[4] = analgesic activity, assay not given (including inhibition by naloxone); format: in vivo
morphine receptor = assay: binding to the morphine receptor
[5] = Carrageenin Pleurisy Assay (CPA), acute anti-inflammatory activity; format: in vivo, rat
Procedure: Following the procedure described by Vinegar et al. in Proc. Soc. Exp. Biol. Med. 151, 556, (1976), the acute anti-inflammatory activity of the compound (I) was compared with that of known anti-inflammatory drugs in the rat. The average 3 hour exudate volume for each drug-treated group was determined and the % inhibition relative to solvent-fed control animals calculated, the ED50 being the dose required to reduce the 3 hour exudate volume by 50%.

[6] = po, 1 h, rat, p.o., 6.0 kg Force, agent given 15 minutes before trypsin, pain scores 60 minutes after trypsin, read-out: ED50, 6.0 kg Force (Modified Trypsin Hyperalgesic Assay)
[7] = rat, p.o., 60 min prior to testing, plate 45±1.0° C.

With `CC(=O)Nc1ccc(O)cc1` [Acetaminophen] the ED50 [1, 6] was 95 ± 17.2 mg/kg, the ED50 at 200 mg/kg ([1]; po, rat, p.o., 7.5 kg Force, @ 200 mg/kg, read-out: ED50, 7.5 kg Force (Modified Trypsin Hyperalgesic Assay), inactive) was greater than 200 mg/kg and the ED50 [2] was 72 ± 8.6 mg/kg. The “antipyretic activity (in words)” value [2] was “combats fever in the rat” and the “Hot Plate Assay - Rat ED50, inactive” value (Rat Hot Plate Assay; rat, p.o.) was “Inactive”.
For `CC(=O)Oc1ccccc1C(=O)O` [Aspirin], the ED50 ([1]; Rattus norvegicus, po, read-out: ED50, 6.0 kg Force (Modified Trypsin Hyperalgesic Assay), inactive) was greater than 180 mg/kg, the ED50 [2] was 50 ± 8.1 mg/kg and the “antipyretic activity (in words)” value [2] was “combats fever in the rat”. For the same molecule, the “Hot Plate Assay - Rat ED50, inactive” value (Rat Hot Plate Assay; rat, p.o.) was “Inactive” and the ED50 ([3]; Rattus norvegicus) was 21 ± 3.4 mg/kg.
`COc1ccc2c3c1O[C@H]1[C@@H](O)C=C[C@H]4[C@@H](C2)N(C)CC[C@@]341` [Codeine Phosphate] showed an ED50 ([1]; Rattus norvegicus, po, 1 h, read-out: ED50, 6.0 kg Force (Modified Trypsin Hyperalgesic Assay)) of 10 ± 1.7 mg/kg, an ED50 ([1]; Rattus norvegicus, po, 1 h, read-out: ED50, 7.5 kg Force (Modified Trypsin Hyperalgesic Assay)) of 8.8 ± 2.77 mg/kg and an ED50 ([3]; Rattus norvegicus) of 30 ± 2.7 mg/kg.
For `COc1ccc2c3c1O[C@H]1[C@@H](O)C=C[C@H]4[C@@H](C2)N(C)CC[C@@]341` [Codeine], the ED50 (Rat Hot Plate Assay; [7]) was 57 ± 35.3 mg/kg and the “Hot plate Duration of Action (time to reduce 1.5 times the hot plate ED50 to 40% inhibition)” value (Rat Hot Plate Assay; rat, p.o., dose 90 mg/kg) was 3.3 h.
In the case of `O=C1CCCN1c1ccc2c(c1)OCO2` [Compound I, 1-(1,3-benzodioxol-5-yl)-2-pyrrolidinone], the ED50 [1, 6] is reported as 24 ± 5.3 mg/kg, the ED50 ([1]; po, 1 h, rat, p.o., 7.5 kg Force, agent given 15 minutes before trypsin, pain scores 60 minutes after trypsin, read-out: ED50, 7.5 kg Force (Modified Trypsin Hyperalgesic Assay)) is reported as 23 ± 3.5 mg/kg and the “analgesic activity compared with known analgesics in the trypsin assay (in words)” value ([1]; trypsin assay, versus acetaminophen, aspirin, zomepirac, codeine, morphine) is reported as “superior to acetaminophen and the prostaglandin synthetase inhibitors such as aspirin and zomepirac as shown in the trypsin assay but less active than the opiates such as codeine or morphine”. For the same molecule, the “analgesic activity (in words)” value ([4]; in vivo) was “mild to moderately strong analgesic activity”, the “inhibition of analgesic activity by naloxone (in words)” value ([4]; naloxone) was “analgesic activity is not inhibited by naloxone” and the ED50 [2] was 67 ± 4.2 mg/kg. The “antipyretic activity (in words)” value [2] was “antipyretic activity”, the “binding to the morphine receptor (in words)” value (morphine receptor) was “does not bind to the morphine receptor” and the ED50 ([5]; po, 3 h, rat, p.o., relative to solvent-fed control animals, read-out: ED50, dose required to reduce the 3 hour exudate volume by 50% (CPA)) was 48 ± 10.5 mg/kg. The “acute anti-inflammatory activity (in words)” value ([5]; rat, carrageenan pleurisy assay) was “potent, long-lasting acute anti-inflammatory activity”, the “acute anti-inflammatory action compared with acetaminophen (in words)” value ([5]; versus acetaminophen at comparable dose levels) was “more potent and to have a longer-lasting anti-inflammatory effect at comparable dose levels” and the ED50 (Rat Hot Plate Assay; [7]) was 86 ± 16.5 mg/kg. The “Hot plate Duration of Action (time to reduce 1.5 times the hot plate ED50 to 40% inhibition)” value (Rat Hot Plate Assay; rat, p.o., dose 120 mg/kg) was 5.0 h, the “duration of analgesic action (in words)” value (Rat Hot Plate Assay; versus codeine or morphine, assay not given) was “significantly greater for compound (I) than for codeine or morphine” and the ED50 ([3]; rat, p.o.) was 36 ± 7.1 mg/kg.
In the case of `CN1CC[C@]23c4c5ccc(O)c4O[C@H]2[C@@H](O)C=C[C@H]3[C@H]1C5` [Morphine], the ED50 (Rat Hot Plate Assay; Rattus norvegicus) is reported as 17 ± 3.6 mg/kg and the “Hot plate Duration of Action (time to reduce 1.5 times the hot plate ED50 to 40% inhibition)” value (Rat Hot Plate Assay; rat, p.o., dose 30 mg/kg) is reported as 2.5 h.
